Tests used:
Assay type in all cases: in vivo
Details in all cases: evaluated after 13 days
[1] = tested on: Echinochloa crus-galli (ECHCG); assay: Pre-emergence Test (Table B1), ECHCG
Zea mays (ZEAMX) [2] = assay: Pre-emergence Test (Table B1), ZEAMX
[3] = tested on: Amaranthus retoflexus (AMARE); assay: Pre-emergence Test (Table B1), AMARE
[4] = tested on: Amaranthus palmeri (AMAPA); assay: Pre-emergence Test (Table B1), AMAPA
[5] = tested on: Ipomoea hederacea (IPOHE); assay: Pre-emergence Test (Table B1), IPOHE
Zea mays (ZEAMX) [6] = assay: Post-emergence Test (Table B2), ZEAMX; set-up: key: 5-point damage scale: 5=81-100%, 4=61-80%, 3=41-60%, 2=21-40%, 1=0-20%
Method: Seeds of a variety of test species are sown in standard soil in pots (Ipomoea hederacea (IPOHE), Zea mays (ZEAMX), Echinochloa crus-galli (ECHCG), Amaranthus palmeri (AMAPA), (Amaranthus retoflexus (AMARE), and (Setaria faberi (SETFA)). After 8 days cultivation under controlled conditions in a glasshouse (at 24° C./16° C., day/night; 14 hours light; 65% humidity), the plants are sprayed with an aqueous spray solution derived from the formulation of the technical active ingredient in acetone/water (50:50) solution containing 0.5% Tween 20 (polyoxyethelyene sorbitan monolaurate, CAS RN 9005-64-5). Rate of application is shown in g/ha in the tables below. The test plants are then grown in a glasshouse under controlled conditions in a glasshouse (at 24° C./16° C., day/night; 14 hours light; 65% humidity) and watered twice daily. After 13 days the test is evaluated for the percentage damage caused to the plant. The biological activities are shown in the following table on a five-point scale (5=81-100%; 4=61-80%; 3=41-60%; 2=21-40%; 1=0-20%; -=not tested).

CCn1c(Cc2cc(C(F)(F)F)ccn2)cc(=O)c(C(=O)O)c1-c1ccc(Cl)c(Cl)c1 [Compound 18, 2-(3,4-dichlorophenyl)-1-ethyl-4-oxo-6-[[4-(trifluoromethyl)-2-pyridyl]methyl]pyridine-3-carboxylic acid]
0: Pre-emergence Test, percentage damage caused to the plant (five-point scale), ECHCG ([1]; Rate 1000 g/Ha)

CCn1c(Cc2ccc(SC)cc2)cc(=O)c(C(=O)O)c1-c1ccc(Cl)c(Cl)c1 [Compound 28, 2-(3,4-dichlorophenyl)-1-ethyl-6-[(4-methylsulfanylphenyl)methyl]-4-oxo-pyridine-3-carboxylic acid]
0: Pre-emergence Test, percentage damage caused to the plant (five-point scale), ZEAMX (Zea mays (ZEAMX) [2]; Rate 1000 g/Ha) | Pre-emergence Test, percentage damage caused to the plant (five-point scale), AMARE ([3]; Rate 1000 g/Ha) | Pre-emergence Test, percentage damage caused to the plant (five-point scale), AMAPA ([4]; Rate 1000 g/Ha) | Pre-emergence Test, percentage damage caused to the plant (five-point scale), IPOHE ([5]; Rate 1000 g/Ha) | percentage damage caused to the plant, ZEAMX (Zea mays (ZEAMX) [6]; rate 1000 g/Ha)

CCn1c(Cc2cc(F)cc(F)c2)cc(=O)c(C(=O)O)c1-c1ccc(Cl)c(Cl)c1 [Compound 29, 2-(3,4-dichlorophenyl)-6-[(3,5-difluorophenyl)methyl]-1-ethyl-4-oxo-pyridine-3-carboxylic acid]
0: Pre-emergence Test, percentage damage caused to the plant (five-point scale), ZEAMX (Zea mays (ZEAMX) [2]; Rate 1000 g/Ha) | Pre-emergence Test, percentage damage caused to the plant (five-point scale), AMARE ([3]; Rate 1000 g/Ha) | Pre-emergence Test, percentage damage caused to the plant (five-point scale), AMAPA ([4]; Rate 1000 g/Ha) | percentage damage caused to the plant, ZEAMX (Zea mays (ZEAMX) [6]; rate 1000 g/Ha)

CCn1c(Cc2cccc(F)c2)cc(=O)c(C(=O)O)c1-c1ccc(Cl)c(Cl)c1 [Compound 37, 2-(3,4-dichlorophenyl)-1-ethyl 6-[(3-fluorophenyl)methyl]-4-oxo-pyridine-3-carboxylic acid]
0: Pre-emergence Test, percentage damage caused to the plant (five-point scale), ZEAMX (Zea mays (ZEAMX) [2]; Rate 1000 g/Ha) | Pre-emergence Test, percentage damage caused to the plant (five-point scale), AMARE ([3]; Rate 1000 g/Ha) | Pre-emergence Test, percentage damage caused to the plant (five-point scale), AMAPA ([4]; Rate 1000 g/Ha) | Pre-emergence Test, percentage damage caused to the plant (five-point scale), IPOHE ([5]; Rate 1000 g/Ha) | percentage damage caused to the plant, ZEAMX (Zea mays (ZEAMX) [6]; rate 1000 g/Ha)

CCn1c(Cc2ccnc(Cl)c2)cc(=O)c(C(=O)O)c1-c1ccc(Cl)c(Cl)c1 [Compound 41, 6-[(2-chloro-4-pyridyl)methyl]-2-(3,4-dichlorophenyl)-1-ethyl-4-oxo-pyridine-3-carboxylic acid]
0: Pre-emergence Test, percentage damage caused to the plant (five-point scale), ZEAMX (Zea mays (ZEAMX) [2]; Rate 250 g/Ha) | Pre-emergence Test, percentage damage caused to the plant (five-point scale), AMARE ([3]; Rate 250 g/Ha) | Pre-emergence Test, percentage damage caused to the plant (five-point scale), AMAPA ([4]; Rate 250 g/Ha) | percentage damage caused to the plant, ZEAMX (Zea mays (ZEAMX) [6]; rate 250 g/Ha)

CCn1c(Cc2cncc(F)c2)cc(=O)c(C(=O)O)c1-c1ccc(Cl)c(Cl)c1 [Compound 42, 2-(3,4-dichlorophenyl)-1-ethyl-6-[(5-fluoro-3-pyridyl)methyl]-4-oxo-pyridine-3-carboxylic acid]
0: Pre-emergence Test, percentage damage caused to the plant (five-point scale), ZEAMX (Zea mays (ZEAMX) [2]; Rate 250 g/Ha) | Pre-emergence Test, percentage damage caused to the plant (five-point scale), AMAPA ([4]; Rate 250 g/Ha) | Pre-emergence Test, percentage damage caused to the plant (five-point scale), ECHCG ([1]; Rate 250 g/Ha) | percentage damage caused to the plant, ZEAMX (Zea mays (ZEAMX) [6]; rate 250 g/Ha)

CCn1c(Cc2nccnc2C(=O)O)cc(=O)c(C(=O)O)c1-c1ccc(Cl)c(Cl)c1 [Compound 49, 3-[[5-carboxy-6-(3,4-dichlorophenyl)-1-ethyl-4-oxo-2-pyridyl]methyl]pyrazine-2-carboxylic acid]
0: Pre-emergence Test, percentage damage caused to the plant (five-point scale), ZEAMX (Zea mays (ZEAMX) [2]; Rate 250 g/Ha) | Pre-emergence Test, percentage damage caused to the plant (five-point scale), AMARE ([3]; Rate 250 g/Ha) | Pre-emergence Test, percentage damage caused to the plant (five-point scale), IPOHE ([5]; Rate 250 g/Ha)

CCn1c(Cc2ccsc2)cc(=O)c(C(=O)O)c1-c1ccc(Cl)c(Cl)c1 [Compound 51, 2-(3,4-dichlorophenyl)-1-ethyl-4-oxo-6-(3-thienylmethyl) pyridine-3-carboxylic acid]
0: Pre-emergence Test, percentage damage caused to the plant (five-point scale), ZEAMX (Zea mays (ZEAMX) [2]; Rate 1000 g/Ha) | Pre-emergence Test, percentage damage caused to the plant (five-point scale), AMARE ([3]; Rate 1000 g/Ha) | Pre-emergence Test, percentage damage caused to the plant (five-point scale), AMAPA ([4]; Rate 1000 g/Ha) | Pre-emergence Test, percentage damage caused to the plant (five-point scale), IPOHE ([5]; Rate 1000 g/Ha)

CCn1c(Cc2ccc(OC(F)(F)F)cc2C)cc(=O)c(C(=O)O)c1-c1ccc(Cl)c(Cl)c1 [Compound 63, 2-(3,4-dichlorophenyl)-1-ethyl-6-[[2-methyl-4-(trifluoromethoxy)phenyl]methyl]-4-oxo-pyridine-3-carboxylic acid]
0: Pre-emergence Test, percentage damage caused to the plant (five-point scale), ZEAMX (Zea mays (ZEAMX) [2]; Rate 1000 g/Ha) | Pre-emergence Test, percentage damage caused to the plant (five-point scale), AMARE ([3]; Rate 1000 g/Ha) | Pre-emergence Test, percentage damage caused to the plant (five-point scale), AMAPA ([4]; Rate 1000 g/Ha) | Pre-emergence Test, percentage damage caused to the plant (five-point scale), IPOHE ([5]; Rate 1000 g/Ha)

CCn1c(Cc2ccc(OC)c(F)c2)cc(=O)c(C(=O)O)c1-c1ccc(Cl)c(Cl)c1 [Compound 83, 2-(3,4-dichlorophenyl)-1-ethyl-6-[(3-fluoro-4-methoxy-phenyl)methyl]-4-oxo-pyridine-3-carboxylic acid]
0: Pre-emergence Test, percentage damage caused to the plant (five-point scale), ZEAMX (Zea mays (ZEAMX) [2]; Rate 1000 g/Ha) | Pre-emergence Test, percentage damage caused to the plant (five-point scale), AMARE ([3]; Rate 1000 g/Ha) | Pre-emergence Test, percentage damage caused to the plant (five-point scale), AMAPA ([4]; Rate 1000 g/Ha) | Pre-emergence Test, percentage damage caused to the plant (five-point scale), IPOHE ([5]; Rate 1000 g/Ha)

CCn1c(Cc2cc(OC)ncn2)cc(=O)c(C(=O)O)c1-c1ccc(Cl)c(Cl)c1 [Compound 100, 2-(3,4-dichlorophenyl)-1-ethyl-6-[(6-methoxypyrimidin-4-yl)methyl]-4-oxo-pyridine-3-carboxylic acid]
0: Pre-emergence Test, percentage damage caused to the plant (five-point scale), ZEAMX (Zea mays (ZEAMX) [2]; Rate 250 g/Ha) | Pre-emergence Test, percentage damage caused to the plant (five-point scale), AMARE ([3]; Rate 250 g/Ha) | Pre-emergence Test, percentage damage caused to the plant (five-point scale), ECHCG ([1]; Rate 250 g/Ha)

CCOC(=O)c1cccc(Cc2cc(=O)c(C(=O)O)c(-c3ccc(Cl)c(Cl)c3)n2CC)n1 [Compound 102, 2-(3,4-dichlorophenyl)-6-[(6-ethoxycarbonylpyridin-1-ium-2-yl)methyl]-1-ehtyl-4-oxo-pyridine-3-carboxylic acid; 2,2,2-trifluoroacetate]
0: Pre-emergence Test, percentage damage caused to the plant (five-point scale), ZEAMX (Zea mays (ZEAMX) [2]; Rate 1000 g/Ha) | Pre-emergence Test, percentage damage caused to the plant (five-point scale), AMARE ([3]; Rate 1000 g/Ha) | Pre-emergence Test, percentage damage caused to the plant (five-point scale), AMAPA ([4]; Rate 1000 g/Ha) | Pre-emergence Test, percentage damage caused to the plant (five-point scale), IPOHE ([5]; Rate 1000 g/Ha) | percentage damage caused to the plant, ZEAMX (Zea mays (ZEAMX) [6]; rate 1000 g/Ha)

CCn1c(Cc2cc(COC)cc(Cl)n2)cc(=O)c(C(=O)O)c1-c1ccc(Cl)c(Cl)c1 [Compound 103, 6-[[6-chloro-4-(methoxymethyl)-2-pyridyl]methyl]-2-(3,4-dichlorophenyl)-1-ethyl-4-oxo-pyridine-3-carboxylic acid]
0: Pre-emergence Test, percentage damage caused to the plant (five-point scale), ZEAMX (Zea mays (ZEAMX) [2]; Rate 1000 g/Ha) | Pre-emergence Test, percentage damage caused to the plant (five-point scale), AMARE ([3]; Rate 1000 g/Ha) | Pre-emergence Test, percentage damage caused to the plant (five-point scale), AMAPA ([4]; Rate 1000 g/Ha) | Pre-emergence Test, percentage damage caused to the plant (five-point scale), IPOHE ([5]; Rate 1000 g/Ha)

CCn1c(Cc2cc(C#N)ccn2)cc(=O)c(C(=O)O)c1-c1ccc(Cl)c(Cl)c1 [Compound 111, 6-[(4-cyano-2-pyridyl)methyl]-2-(3,4-dichlorophenyl)-1-ethyl-4-oxo-pyridine-3-carboxylic acid]
0: Pre-emergence Test, percentage damage caused to the plant (five-point scale), ECHCG ([1]; Rate 250 g/Ha)

CCn1c(Cc2cc(C)ncn2)cc(=O)c(C(=O)O)c1-c1ccc(Cl)c(Cl)c1 [Compound 128, 2-(3,4-dichlorophenyl)-1-ethyl-6-[(6-methylpyrimidin-4-yl)methyl]-4-oxo-pyridine-3-carboxylic acid]
0: Pre-emergence Test, percentage damage caused to the plant (five-point scale), ZEAMX (Zea mays (ZEAMX) [2]; Rate 250 g/Ha) | Pre-emergence Test, percentage damage caused to the plant (five-point scale), ECHCG ([1]; Rate 250 g/Ha) | percentage damage caused to the plant, ZEAMX (Zea mays (ZEAMX) [6]; rate 250 g/Ha)

CCn1c(Cc2cnc(Cl)cn2)cc(=O)c(C(=O)O)c1-c1ccc(Cl)c(Cl)c1 [Compound 143, 6-[(5-chloropyrazin-2-yl)methyl]-2-(3,4-dichlorophenyl)-1-ethyl-4-oxo-pyridine-3-carboxylic acid]
0: Pre-emergence Test, percentage damage caused to the plant (five-point scale), ZEAMX (Zea mays (ZEAMX) [2]; Rate 250 g/Ha) | Pre-emergence Test, percentage damage caused to the plant (five-point scale), AMAPA ([4]; Rate 250 g/Ha) | Pre-emergence Test, percentage damage caused to the plant (five-point scale), ECHCG ([1]; Rate 250 g/Ha) | percentage damage caused to the plant, ZEAMX (Zea mays (ZEAMX) [6]; rate 250 g/Ha)

CCn1c(Cc2csnc2C)cc(=O)c(C(=O)O)c1-c1ccc(Cl)c(Cl)c1 [Compound 150, 2-(3,4-dichlorophenyl)-1-ethyl-6-[(3-methylisothiazol-4-yl)methyl]-4-oxo-pyridine-3-carboxylic acid]
0: Pre-emergence Test, percentage damage caused to the plant (five-point scale), ZEAMX (Zea mays (ZEAMX) [2]; Rate 250 g/Ha) | Pre-emergence Test, percentage damage caused to the plant (five-point scale), IPOHE ([5]; Rate 250 g/Ha) | percentage damage caused to the plant, ZEAMX (Zea mays (ZEAMX) [6]; rate 250 g/Ha)

From patent publication US20260013501A1, “HERBICIDAL DERIVATIVES” (SYNGENTA CROP PROTECTION AG, priority 2022, published 2026)
